Source: patent US8211463B2, “Use of glycolipids as adjuvants” (Helmholtz-Zentrum Fuer Infektionsforschung GmbH, priority 2006, dated 2012)

Key:
[1] = system: β-Gal-specific systemic IgG; assay: β-Gal-specific serum IgG ELISA after i.n. or s.c. immunisation with β-Gal plus glycolipid adjuvant; format: in vivo, Balb/c mice; details: day 38
Procedure: Co-administration of β-Gal with 10 μg glycolipids 1, 5 and 6 induced β-Gal-specific systemic IgG responses in Balb/c mice. Balb/c mice were immunized by the i.n. or s.c. route with β-Gal alone or together with glycolipids 1, 5 and 6 three times at 2-wk intervals. 10 days after the final immunization, the immunized mice were sacrified. The levels of β-Gal-specific systemic IgG were determined in Sera of mice immunized by the i.n. (A) and s.c. (B) route. […] The parenteral administration of with β-Gal co-administered with glycolipids 1, 5 and 6 doubled the β-Galactosidase-specific IgG titer (>500000) in comparison to animals which were immunized with β-Gal alone. Bars represent mean Ab titer or amount±SE in each group. […]
Balb/c mice were immunized by the i.n. or s.c. route with β-Gal alone or together with glycolipids 5 and 6 three times at 2-wk intervals. […] The levels of β-Gal-specific systemic IgG were determined in Sera of mice immunized by the i.n. (A) and s.c. (B) route. […]
Experimental protocol: six-eight weeks-old female BALB/c (H-2d) mice were purchased from Harlan Winkelmann GmbH (Borchen, Germany) and treated in accordance with local and European Community guidelines. […] Endpoint titers were expressed as the reciprocal log 2 of the last dilution, which gave an optical density at 405 nm of 0.1 units above the values of the negative controls after 15 to 30 min of incubation.

[2] = system: spleen cells of immunized mice; assay: Splenocyte proliferation ([3H]thymidine incorporation) after in vitro restimulation with β-Gal; format: in vivo, Balb/c mice; details: i.n., 10 μg glycolipid, restimulation with β-Gal for 4 days
Procedure: (§1) Co-administration of β-Gal with 10 μg glycolipids 1, 5 and 6 induced a strong cellular immune responses against the β-Gal antigen in Balb/c mice. Balb/c mice were immunized by the i.n. or s.c. route with β-Gal alone or together with glycolipids 1, 5 and 6 three times at 2-wk intervals. 10 days after the final immunization, the immunized mice were sacrificed. Splenocytes of mice immunized by the i.n. (A) and s.c. (B) route were collected and cultured with different concentrations of the β-Gal-Protein for 4 days. […] Curves represent [^3H]thymidine incorporation (counts per minute, cpm) and Stimulation index (SI) in each group. Each group consists of five mice. Data are representative of three separate experiments.
as §1, with “with 20 up to 30” for “with 10”, “glycolipids” for “glycolipids 1,”, “represent [3H]thymidine incorpoaration” for “represent [^3H]thymidine incorporation”
Experimental protocol: Spleens were removed and pooled for analysis of cellular immune responses. Cells were grown in RPMI 1640 supplemented with 10% fetal calf serum, 100 U/ml of penicillin, 50 μg/ml of streptomycin, 5×10^−5 M 2-mercaptoethanol and 1 mM L-glutamine (GIBCO BRL, Karlsruhe, Germany) and maintained at 37° C. in a humidified 5% CO2 atmosphere. Spleen cell suspensions were adjusted to 5×10^6 cells/ml in complete medium, cells were seeded with 100 μl per well in a flat-bottomed 96-well microtiter plate (Nunc) and plates were incubated for 4 days. Unstimulated spleen cells were incubated in the presence of different concentrations of the new adjuvants to analyze the in vitro stimulation capacity of glycolipids 1, 5 or 6, respectively. T cellmediated immune responses were investigated at day 38 by measuring the proliferation of cells recovered from spleens after in vitro restimulation with β-Gal. Said spleen cells were obtained from vaccinated mice—said mice where immunized as described in Example 2—and incubated in the presence of different concentrations of the soluble β-Gal antigen. Each concentration was tested in triplicates. During the final 18 h of culture, 1 μCi of [^3H]thymidine (Amersham International, Freiburg, Germany) was added to each well. Cells were then harvested on paper filters (Filtermat A; Wallac, Freiburg, Germany) by using a cell harvester (Inotech, Wohlen, Switzerland), and the amount of incorporated [^3H]thymidine into the DNA of proliferating cells was determined by a β-scintillation counter (Wallac 1450, Micro-Trilux). The results are expressed as the arithmetic mean of [^3H]thymidine uptake in cpm.

Substance: β-Gal
- β-Galactosidase-specific IgG titer in serum ([1]; 10 μg glycolipid + 30 μg β-Gal, three immunisations): < 1/10000 and very low antibody titers
- β-Galactosidase-specific IgG titer in serum ([1]; 20 or 30 μg glycolipid + 30 μg β-Gal): < 1/10000
- Stimulation index (SI), [3H]thymidine incorporation of spleen cells [2]: no effect
